Assay results reported in patent US20260256792A1, “TREATMENT OF CHRONIC SPONTANEOUS URTICARIA BY ADMINISTERING (R)-2-[3-[4-AMINO-3-(2-FLUORO-4-PHENOXY-PHENYL)PYRAZOLO[3,4-D]PYRIMIDIN-1-YL]PIPERIDINE-1-CARBONYL]-4-METHYL-4-[4-(OXETAN-3-YL)PIPERAZIN-1-YL]PENT-2-ENENITRILE” (priority 2023, published 2026).

Test system: moderate-to-severe chronic spontaneous urticaria (CSU)
Experiment: Phase 2 CSU study: urticaria activity score over 7 days (UAS7)
Format: in vivo, human
Parameters: key to UAS7 Median / UAS7 Change from baseline Median / UAS7 change from baseline, Q1 / UAS7 change from baseline, Q3 / UAS7 change from baseline, Max / UAS7 Change from baseline LS Mean (SE): UAS7 points; daily UAS score ranges 0–6 points/day, over 7 days
Conditions: for UAS7 change from baseline at Week 12, LS Mean (SE): ANCOVA; for LS mean change in UAS7 from baseline to Week 12 (see Table 18): sentence on reductions following one week of treatment; for UAS7 Change from baseline Mean (SD) / UAS7 Change from baseline Median / UAS7 Percent change from baseline Mean (SD) / UAS7 Percent change from baseline Median / UAS7 change from baseline, Max / UAS7 change from baseline, Min / UAS7 change from baseline, Q1 / UAS7 change from baseline, Q3 / UAS7 percent change from baseline, Max / UAS7 percent change from baseline, Min / UAS7 percent change from baseline, Q1 / UAS7 percent change from baseline, Q3: double-blind period, last week block of Table 17 (week heading not shown); for participants with UAS7 of 0 / participants with UAS7 of ≤6: Week 12, omalizumab-naïve; for UAS7 Mean (SD) / UAS7 Median: End of Study; for UAS7 % Change difference for rilzabrutinib vs. placebo LS Mean (95% CI) / UAS7 % Change from baseline LS Mean (SE) / UAS7 Change difference for rilzabrutinib vs. placebo LS Mean (95% CI) / UAS7 Change from baseline LS Mean (SE): ITT Population
Text: The study comprises a 12 week, randomized, double-blind, placebo-controlled, multi-center, dose-ranging efficacy and safety phase, followed by a 40 week open label extension (OLE) phase (see FIG. 1). The study consists of three phases and an optional OLE phase. […] Clinically, CSU is characterized by the spontaneous and recurrent appearance of pruritic hives. The proposed primary endpoints were the UAS7 at Week 12 in EU and EU reference countries and the ISS7 in the US. Regardless of where a participant was from, all assessments were the same. The UAS7 score is a composite score containing both the HSS7 and the ISS7. This allowed a global assessment of the two key components of urticaria: hives and itch. […] The UAS is a validated PRO measure. […] The daily UAS scores range from 0 to 6 point/day. […] Patients were to complete the UAS using the e-diary. […] The following secondary endpoints were to be analyzed using the same approach as for the primary endpoint: • Change from baseline in UAS7 at Week 4 • Change from baseline in UAS7 at Week 12 (for US and US reference countries) • Change from baseline in ISS7 at Week 12 (except US and US reference countries) • Change from baseline in HSS7 at Week 12 The following responder secondary endpoints were to be analyzed using the Cochran-Mantel-Haenszel test adjusted by region: • Proportion of participants with UAS7<6 at Week 12 • Proportion of participants with UAS7=0 at Week 12 Participants who received selected prohibited medications and/or rescue medications were to be considered as non-responders for time points after the medication usage. For other participants, all available data including those collected during the off-treatment period were to be used to determine the responder/non-responder status. Missing data were to be considered as non-responders.

[1] = 400 mg BID, Omalizumab-Naïve Population (N = 35), n observed/imputed 5 (3/2)
[2] = 400 mg BID, omalizumab-naïve population
[3] = 400 mg BID, omalizumab-naïve population with outlier removed
[4] = 400 mg QPM, Omalizumab-Naïve Population (N = 37), n observed/imputed 7 (3/4)
[5] = 400 mg QPM, omalizumab-naïve population
[6] = 400 mg QPM, omalizumab-naïve population with outlier removed
[7] = 400 mg TID, Omalizumab-Naïve Population (N = 35), n observed/imputed 5 (3/2)
[8] = 400 mg TID, Patients with Prior Omalizumab Use, Including Omalizumab-Incomplete Responders (N = 6), n observed/imputed 2 (0/2)
[9] = 400 mg TID, omalizumab-naïve population
[10] = 400 mg TID, omalizumab-naïve population with outlier removed
[11] = 400 mg TID, Prior Omalizumab Use

## CC(C)(C=C(C#N)C(=O)N1CCC[C@@H](n2nc(-c3ccc(Oc4ccccc4)cc3F)c3c(N)ncnc32)C1)N1CCN(C2COC2)CC1 [rilzabrutinib, (R)-2-[3-[4-amino-3-(2-fluoro-4-phenoxy-phenyl)pyrazolo[3,4-d]pyrimidin-1-yl]piperidine-1-carbonyl]-4-methyl-4-[4-(oxetan-3-yl)piperazin-1-yl]pent-2-enenitrile]
400 mg BID
  improvement compared to placebo across all endpoints: positive improvements across all endpoints
  participants with UAS7 of 0: 14.3%
  participants with UAS7 of ≤6: 20.0%
400 mg BID, ITT population
  UAS7 at Week 12, Mean (SD): 14.70 (14.29)
  UAS7 at Week 12, Median: 12.00
  UAS7 change from baseline at Week 12, LS Mean Diff vs. placebo (95% CI): −3.62 (−8.87, 1.63)
  UAS7 change from baseline at Week 12, Mean (SD): −16.02 (13.29) ^
  UAS7 change from baseline at Week 12, Median: −13.50
  UAS7 change from baseline at Week 12, LS Mean (SE): −14.82 (1.98)
  LS mean change in UAS7 from baseline to Week 12 (see Table 18): −10.01
[1]
  UAS7 Change from baseline Mean (SD): −14.40 (13.79)
  UAS7 Change from baseline Median: −13.00
  UAS7 Percent change from baseline Mean (SD): −51.30 (48.04) %
  UAS7 Percent change from baseline Median: −48.15%
  UAS7 change from baseline, Max: 0.0
  UAS7 change from baseline, Min: −29.0
  UAS7 change from baseline, Q1: −28.00
  UAS7 change from baseline, Q3: −2.00
  UAS7 percent change from baseline, Max: 0.0%
  UAS7 percent change from baseline, Min: −100.0%
  UAS7 percent change from baseline, Q1: −100.00%
  UAS7 percent change from baseline, Q3: −8.33%
[2]
  LS mean reduction in UAS7 from baseline to Week 12 (see Table 19): −9.79
  UAS7 at Week 12, Mean (SD): 15.61 (13.91)
  UAS7 at Week 12, Median: 14.00
  UAS7 change from baseline at Week 12, LS Mean Diff vs. placebo (95% CI): −4.09 (−9.59, 1.40)
  UAS7 change from baseline at Week 12, Mean (SD): −14.49 (12.08) ^
  UAS7 change from baseline at Week 12, Median: −12.80
  UAS7 change from baseline at Week 12, LS Mean (SE): −14.24 (2.06)
[3]
  UAS7 at Week 12, Mean (SD): 15.61 (13.91)
  UAS7 at Week 12, Median: 14.00
  UAS7 change from baseline at Week 12, LS Mean Diff vs. placebo (95% CI): −4.29 (−9.74, 1.16)
  UAS7 change from baseline at Week 12, Mean (SD): −14.49 (12.08) ^
  UAS7 change from baseline at Week 12, Median: −12.80
  UAS7 change from baseline at Week 12, LS Mean (SE): −14.30 (2.06)
400 mg QPM
  difference to placebo across endpoints: no difference
400 mg QPM, ITT population
  UAS7 at Week 12, Mean (SD): 21.80 (10.94)
  UAS7 at Week 12, Median: 22.40
  UAS7 change from baseline at Week 12, LS Mean Diff vs. placebo (95% CI): 0.97 (−4.40, 6.34)
  UAS7 change from baseline at Week 12, Mean (SD): −11.04 (9.56)
  UAS7 change from baseline at Week 12, Median: −9.40
  UAS7 change from baseline at Week 12, LS Mean (SE): −10.22 (2.01)
[4]
  UAS7 Change from baseline Mean (SD): −21.44 (16.26)
  UAS7 Change from baseline Median: −28.00
  UAS7 Percent change from baseline Mean (SD): −66.12 (46.34) %
  UAS7 Percent change from baseline Median: −86.67%
  UAS7 change from baseline, Max: 0.3
  UAS7 change from baseline, Min: −38.0
  UAS7 change from baseline, Q1: −36.40
  UAS7 change from baseline, Q3: 0.00
  UAS7 percent change from baseline, Max: 1.1%
  UAS7 percent change from baseline, Min: −100.0%
  UAS7 percent change from baseline, Q1: −100.00%
  UAS7 percent change from baseline, Q3: 0.00%
[5]
  UAS7 at Week 12, Median: 22.87
  UAS7 change from baseline at Week 12, LS Mean Diff vs. placebo (95% CI): 0.40 (−5.08, 5.89)
  UAS7 change from baseline at Week 12, Mean (SD): −10.57 (9.36)
  UAS7 change from baseline at Week 12, Median: −8.70
  UAS7 change from baseline at Week 12, LS Mean (SE): −9.74 (2.00) ^
[6]
  UAS7 at Week 12, Median: 22.87
  UAS7 change from baseline at Week 12, LS Mean Diff vs. placebo (95% CI): 0.08 (−5.29, 5.46)
  UAS7 change from baseline at Week 12, Mean (SD): −10.57 (9.36)
  UAS7 change from baseline at Week 12, Median: −8.70
  UAS7 change from baseline at Week 12, LS Mean (SE): −9.93 (1.96) ^
400 mg TID arm
  patients with improvement in the weekly UAS7: all patients except for one showed improvement
400 mg TID, ITT population
  UAS7 at Week 12, Median: 9.00
  UAS7 change from baseline at Week 12, LS Mean Diff vs. placebo (95% CI): −6.76 (−12.01, −1.51)
  UAS7 change from baseline at Week 12, Mean (SD): −20.30 (12.41) ^
  UAS7 change from baseline at Week 12, Median: −20.33
  UAS7 change from baseline at Week 12, LS Mean (SE): −17.95
  LS mean change in UAS7 from baseline to Week 12 (see Table 18): −12.72
400 mg TID, ITT population, listed as Rilzabrutinib
  UAS7 change from baseline at Week 12, LS Mean (SE): −17.95 (1.95)
400 mg TID, ITT population, belongs to LS mean change −12.72
  decrease from baseline in UAS7: 40.18%
[7]
  UAS7 Change from baseline Mean (SD): −11.40 (6.62)
  UAS7 Change from baseline Median: −14.00
  UAS7 Percent change from baseline Mean (SD): −38.24 (25.31) %
  UAS7 Percent change from baseline Median: −45.95%
  UAS7 change from baseline, Max: 0.0
  UAS7 change from baseline, Min: −17.0
  UAS7 change from baseline, Q1: −14.00
  UAS7 change from baseline, Q3: −12.00
  UAS7 percent change from baseline, Max: 0.0%
  UAS7 percent change from baseline, Q1: −50.00%
  UAS7 percent change from baseline, Q3: −28.57%
[8]
  UAS7 Change from baseline Mean (SD): −3.50 (4.95)
  UAS7 Change from baseline Median: −3.50
  UAS7 Percent change from baseline Mean (SD): −21.88 (30.94) %
  UAS7 Percent change from baseline Median: −21.88%
  UAS7 change from baseline, Max: 0.0
  UAS7 change from baseline, Min: −7.0
  UAS7 change from baseline, Q1: −7.00
  UAS7 change from baseline, Q3: 0.00
  UAS7 percent change from baseline, Max: 0.0%
  UAS7 percent change from baseline, Min: −43.8%
  UAS7 percent change from baseline, Q1: −43.75%
  UAS7 percent change from baseline, Q3: 0.00%
400 mg TID
  participants with UAS7 of 0: 20.0%
  participants with UAS7 of ≤6: 34.3%
[9]
  LS mean reduction in UAS7 from baseline to Week 12 (see Table 19): −11.44
  UAS7 at Week 12, Mean (SD): 11.00 (9.90)
  UAS7 at Week 12, Median: 12.25
  UAS7 change from baseline at Week 12, LS Mean Diff vs. placebo (95% CI): −6.75 (−12.23, −1.26)
  UAS7 change from baseline at Week 12, Mean (SD): −19.04 (11.40) ^
  UAS7 change from baseline at Week 12, Median: −18.92
  UAS7 change from baseline at Week 12, LS Mean (SE): −16.89
[10]
  UAS7 at Week 12, Mean (SD): 11.00 (9.90)
  UAS7 at Week 12, Median: 12.25
  UAS7 change from baseline at Week 12, LS Mean Diff vs. placebo (95% CI): −7.50 (−13.02, −1.97)
  UAS7 change from baseline at Week 12, Mean (SD): −19.04 (11.40) ^
  UAS7 change from baseline at Week 12, Median: −18.92
  UAS7 change from baseline at Week 12, LS Mean (SE): −17.50
400 mg TID, omalizumab-naïve population with outlier removed, listed as Rilzabrutinib
  UAS7 change from baseline at Week 12, LS Mean (SE): −17.50 (2.06)
400 mg TID, omalizumab-naïve population, listed as Rilzabrutinib
  UAS7 change from baseline at Week 12, LS Mean (SE): −16.89 (2.04)
400 mg BID, Omalizumab-Naïve
  UAS7 Mean (SD): 15.60 (17.52)
  UAS7 Median: 14.00
400 mg QPM, Omalizumab-Naïve
  UAS7 Mean (SD): 11.70 (16.82)
  UAS7 Median: 5.00
400 mg TID, Omalizumab-Naïve
  UAS7 Mean (SD): 21.40 (11.74)
  UAS7 Median: 20.00
[11]
  UAS7 Mean (SD): 15.58 (9.31)
  UAS7 Median: 15.58
400 mg BID, Week 2
  UAS7 % Change difference for rilzabrutinib vs. placebo LS Mean (95% CI): −17.26%
  UAS7 % Change from baseline LS Mean (SE): −36.13%
  UAS7 Change difference for rilzabrutinib vs. placebo LS Mean (95% CI): −4.49
  UAS7 Change from baseline LS Mean (SE): −10.82
400 mg QPM, Week 3
  UAS7 % Change difference for rilzabrutinib vs. placebo LS Mean (95% CI): −7.92%
  UAS7 % Change from baseline LS Mean (SE): −29.55%
  UAS7 Change difference for rilzabrutinib vs. placebo LS Mean (95% CI): −1.91
  UAS7 Change from baseline LS Mean (SE): −9.50
400 mg QPM, Week 5
  UAS7 % Change difference for rilzabrutinib vs. placebo LS Mean (95% CI): −0.72%
  UAS7 % Change from baseline LS Mean (SE): −32.52%
  UAS7 Change difference for rilzabrutinib vs. placebo LS Mean (95% CI): −0.26
